“And” between values parts separate entries of the source, which are not always exact repeats. Identical values can stand only once.
Assays:
[1] = tested on: db/db mouse; assay: db/db mouse model of HFpEF; assay type: in vivo
Source text: The db/db leptin receptor-deficient mouse has a point mutation in the diabetes (db) gene encoding the leptin receptor, which spontaneously causes morbid obesity accompanied by severe hyperglycemia secondary to type 2 diabetes. […] At the histological level, these mice hearts have enlarged cardiomyocytes, evidence of fibrosis, and capillary rarefaction. The db/db mice appear to represent the obese/metabolic HFpEF phenotype, with evidence of HF, whereas LVEF is preserved.
Model 3: twenty-week old male diabetic-prone, obese db/db mice of the BKS.Cg-Dock7m+/+Leprdb/J strain will be randomly assigned (30 mice, n=10/group) to receive vehicle or chronic Compound 1 treatment at 60 mg/kg/day or 100 mg/kg/day. Treatment will be carried for 8 weeks using subcutaneous osmotic pumps. The mice will be housed in a standard-temperature, 12 h/12 h light/dark controlled room, with water and standard rodent diet available ad libitum.
(§1) Methods: Cardiac and renal responses to Compound 1 (60 mg/kg, 100 mg/kg) compared with vehicle were examined over 6-8 weeks in 3 adult male mouse models of HFpEF (1.5 mg/kg/d angiotensin-II infusion [ang-II]; uninephrectomy+0.30 μg/h d-aldosterone infusion+1% NaCl drinking water [neph-aldo]; and db/db [db]). Phenotyping included wheat germ agglutinin staining for cardiomyocyte cross-sectional area (CSA); RT-PCR for myocardial PDE9, natriuretic peptide, inflammatory and fibrosis marker transcript abundances; ELISA for plasma natriuretic peptides; and urinary albumin to creatinine ratio (UACR).
(§2) P-value from Wilcoxon rank-sum test. Ang-II model (8-week old C57BL/6 mice were infused with ang-II at […] for 6 weeks with concomitant Compound 1 or vehicle). Neph+d-aldo+1% NaCl model (8-week old C57BL/6 mice underwent uninephrectomy then were infused with d-aldosterone for 6 weeks with ad-libitum 1% NaCl drinking water while receiving concomitant Compound 1 or vehicle). db model (20-week old BKS.Cg-Dock7m+/+Leprdb/J received vehicle or Compound 1 for 8 weeks). mRNA expression levels were normalized to GAPDH, Rpl4 and Eef1e1.

[2] = tested on: patient; assay: Administration with food, adverse event profile; assay type: in vivo; conditions: once a day with food
[3] = tested on: aldosterone-infused and unilateral nephrectomized mouse (neph-aldo model of HFpEF); assay: Uninephrectomy + d-aldosterone infusion + 1% NaCl mouse model of HFpEF; assay type: in vivo
Source text: Mice subjected to uninephrectomy and aldosterone infusion for 4 to 6 weeks, accompanied by 1% NaCl intake, develop HFpEF with moderate hypertension, concentric left ventricle hypertrophy, pulmonary congestion, and echocardiographic evidence of diastolic dysfunction while maintaining a normal/preserved LVEF. These mice also show exercise impairment. At the molecular level, left ventricle tissue from these mice show an increase in natriuretic peptides, cardiac size and fibrosis, as well as an increase in the oxidative stress.
Model 1: eight-week-old C57BL/6J male mice were anesthetized with 100 mg/kg ketamine and 10 mg/kg xylazine intraperitoneally. All mice underwent unilateral nephrectomy and then will receive a continuous infusion of d-aldosterone (0.30 μg/h) via osmotic minipumps. All mice were maintained on 1.0% sodium chloride drinking water. Mice were randomized to receive either vehicle or Compound 1 at 60 mg/kg/day or 100 mg/kg/day by oral gavage for 4 or 6 weeks (36 mice, N=6/group). The mice were housed in a standard-temperature, 12 h/12 h light/dark controlled room, with water and standard rodent diet available ad libitum. Mice were euthanized 4 or 6 weeks after the beginning of the treatment. It has been shown that administering of 60 mg/kg of Compound 1 in mice is equivalent to administering about 4.8 mg/kg of Compound 1 in adult human subjects. Similarly, it has been shown that administering 100 mg/kg of Compound 1 in mice is equivalent to administering about 8.1 mg/kg of Compound 1 in human subjects.
as §1, §2

[4] = tested on: angiotensin II-infused mouse (Ang-II model of HFpEF); assay: Angiotensin II infusion mouse model of HFpEF; assay type: in vivo
Source text: C57BL/6J mice develop compensatory concentric hypertrophy and fibrosis in response to angiotensin II. Pulmonary congestion, as well as exercise intolerance, are evident and seem to be related to angiotensin II-induced skeletal muscle abnormalities, including impaired mitochondrial function and skeletal muscle atrophy. In summary, if strain and dosage are optimized to mirror the human HFpEF phenotype, angiotensin II infusion appears to be a relevant HFpEF model.
Model 2: eight-week-old C57BL/6J male mice were anesthetized with isoflurane and subcutaneously implanted with an osmotic minipump to continuously infuse angiotensin II in 10 mM acetic acid at a dose of 1.5 mg/kg per day over a period of 4 to 6 weeks. Experimental animal groups were randomly assigned to receive either vehicle or Compound 1 at 60 mg/kg/day or 100 mg/kg/day by oral gavage for 4 or 6 weeks (36 mice, N=6/group) over the same time period. The mice were housed in a standard-temperature, 12 h/12 h light/dark controlled room, with water and standard rodent diet available ad libitum. Mice were euthanized 4 or 6 weeks after angiotensin-II infusion. It has been shown that administering of 60 mg/kg of Compound 1 in mice is equivalent to administering about 4.8 mg/kg of Compound 1 in adult human subjects. Similarly, it has been shown that administering 100 mg/kg of Compound 1 in mice is equivalent to administering about 8.1 mg/kg of Compound 1 in human subjects.
as §1, §2

[5] = tested on: adult patients with sickle cell disease; assay: IMR-SCD-102 Phase 2a trial, plasma NT-proBNP; assay type: in vivo, human
Procedure: IMR-SCD-102 is an ongoing Phase 2a randomized double-blind placebo-controlled trial testing Compound 1 (IMR-687) at 50 mg-200 mg daily as monotherapy or 50-100 mg in combination with background hydroxyurea therapy (Compound 1+HU). A protocol amendment later in the study allowed for sample collection and characterization of NT-proBNP levels in the combination cohort (Compound 1+HU versus HU alone). Plasma NT-proBNP was measured in 15 subjects (100% HbSS genotype) at randomization and again at 4 months. A 2:1 randomization schema favoring combination treatment translated to 10 subjects on Compound 1+HU and 5 on HU alone. Baseline, 4-month follow-up, and change in NT-proBNP levels were quantified. Further, whether the change in NT-proBNP level varied according to treatment and baseline NT-proBNP level was tested.

[6] = median, db/db model, 8 weeks, normalized to GAPDH, Rpl4 and Eef1e1
[7] = median, Neph + Aldo model, 6 weeks
[8] = median, Neph + Aldo model, 6 weeks, normalized to GAPDH, Rpl4 and Eef1e1
[9] = median, Ang-II model, 6 weeks, normalized to GAPDH, Rpl4 and Eef1e1

Compound: C[C@@H]1CN(Cc2ncccn2)C[C@H]1c1cn2c(C3CCOCC3)ncc2c(=O)[nH]1 (single isomer, unassigned) [Compound 1]
- Heart rate and blood pressure, Compound 1 vs vehicle treated mice ([1]; db model): did not differ
- reduction of median cardiomyocyte size (CSA) compared with vehicle ([1]; db model, Compound 1 60 mg/kg, 100 mg/kg, p<0.003): 35%
- Plasma ANP ([1]; median, db/db model, 8 weeks): 714 pg/mL
- Plasma BNP ([1]; median, db/db model, 8 weeks): 830 pg/mL
- Urine UACR (urinary albumin to creatinine ratio) ([1]; median, db/db model, 8 weeks): 132.5 µg/mg
- Myocardial mRNA PDE9 ([1]; median, db/db model, 8 weeks, Compound 1 60 mg/kg, 100 mg/kg, normalized to GAPDH, Rpl4 and Eef1e1): 1.5
- Myocardial mRNA COL3A1 [1, 6]: 1.1
- Myocardial mRNA IL-1b [1, 6]: 3.6
- Myocardial mRNA NPPA [1, 6]: 1.7
- Myocardial mRNA NPPB [1, 6]: 2.2
- effect of food on adverse event profile (nausea, emesis, headache) [2]: reduce the adverse event profile dramatically
- heart size and cardiomyocyte hypertrophy ([3]; after 4 weeks of dosing at 60 and 100 mg/kg, FIGS. 2A, 2B): decreases
- ANP and BNP markers of cardiac dysfunction ([3]; dosing with 60 and 100 mg/kg, FIGS. 3A, 3B right side): decreases
- PDE5 and PDE9 expression ([3]; in combination with nephrectomy-aldosterone, FIG. 4B): increased
- heart fibrosis (TGF-ß1 and downstream targets Fibronectin and Collagen type I and III) ([3]; in combination with nephrectomy-aldosterone, FIG. 7): decreases
- markers of myocardial inflammation ([3]; in combination with nephrectomy-aldosterone, FIG. 8B): decreases
- Plasma ANP [3, 7]: 740 pg/mL
- Plasma BNP [3, 7]: 1216 pg/mL
- Urine UACR (urinary albumin to creatinine ratio) [3, 7]: 48.4 µg/mg
- Myocardial mRNA PDE9 ([3]; median, Neph + Aldo model, 6 weeks, Compound 1 60 mg/kg, 100 mg/kg, normalized to GAPDH, Rpl4 and Eef1e1): 3.7
- Myocardial mRNA COL3A1 [3, 8]: 2.6
- Myocardial mRNA IL-1b [3, 8]: 2.5
- Myocardial mRNA NPPA [3, 8]: 4.9
- Myocardial mRNA NPPB [3, 8]: 4.2
- Heart rate and blood pressure, Compound 1 vs vehicle treated mice ([3]; neph-aldo model): did not differ
- reduction of median cardiomyocyte size (CSA) compared with vehicle ([3]; neph-aldo model, Compound 1 60 mg/kg, 100 mg/kg, p<0.003): 58%
- heart size and cardiomyocyte hypertrophy ([4]; 6 weeks of dosing at 60 and 100 mg/kg, FIGS. 1A, 1B): decreases
- Heart rate and blood pressure, Compound 1 vs vehicle treated mice ([4]; ang-II model): did not differ
- reduction of median cardiomyocyte size (CSA) compared with vehicle ([4]; ang-II model, Compound 1 60 mg/kg, 100 mg/kg, p<0.003): 54%
- ANP and BNP markers of cardiac dysfunction ([4]; dosing with 60 and 100 mg/kg, FIGS. 3A, 3B left side): decreases
- PDE5 and PDE9 expression ([4]; in combination with Angiotensin II, FIG. 4A): increased
- markers of myocardial inflammation ([4]; in combination with Angiotensin II, FIG. 8A): decreases
- heart fibrosis (TGF-ß1 and downstream targets Fibronectin and Collagen type I and III) ([4]; in combination with Angiotensin II, FIGS. 6A, 6B): decreases
- Plasma ANP ([4]; median, Ang-II model, 6 weeks): 968 pg/mL
- Plasma BNP ([4]; median, Ang-II model, 6 weeks): 2376 pg/mL
- Urine UACR (urinary albumin to creatinine ratio) ([4]; median, Ang-II model, 6 weeks): 95.5 µg/mg
- Myocardial mRNA PDE9 ([4]; median, Ang-II model, 6 weeks, Compound 1 60 mg/kg, 100 mg/kg, normalized to GAPDH, Rpl4 and Eef1e1): 1.7
- Myocardial mRNA COL3A1 [4, 9]: 1.5
- Myocardial mRNA IL-1b [4, 9]: 1.9
- Myocardial mRNA NPPA [4, 9]: 1.4
- Myocardial mRNA NPPB [4, 9]: 2.0

Compound: NC(=O)NO [HU, hydroxyurea]
- treated subjects with greater than 50% reduction in NT-proBNP levels ([5]; at 4 months): none
- mean 4-month follow-up NT-proBNP level ([5]; plasma, 4 months): 436 pg/mL
- mean NT-proBNP higher at 4 months than baseline ([5]; plasma, 4 months): 27.0% and 27. %
- mean increase of NT-proBNP, baseline to 4 months ([5]; plasma, 4 months): 93 pg/mL
- mean baseline NT-proBNP level ([5]; plasma, at randomization): 343 pg/mL
- average increase in NT-proBNP between baseline and 4 months ([5]; subjects with baseline NT-proBNP ≥400 pg/ml): 28%
